Measured values published in US20040224958A1, “Pyridopyrimidinone derivatives for treatment of neurodegenerative disease” (priority 2000, published 2004).
Where two headings read alike, the source gives them in different places.

Columns and labels:
Cdk5/p25 = Cdk5/p25 (Homo sapiens, UniProt Q00535); assay: Cyclin-Dependent Kinase 5 (cdk5) Assay; assay type: biochemical
Experimental: Cyclin-Dependent Kinase 5 (cdk5) Assay
Enzyme assays for IC50 determinations and kinetic evaluation were performed in 96-well filter plates (Millipore MAPH NOB 10). […] All components except histone and ATP were added to wells, and the plate was placed on a shaker for 5 minutes. The reaction was started by adding histone and [^32P]ATP, and the plate was shaken at 30° C. for 45 minutes. The reaction was terminated by addition of 0.1 mL of 150 mM phosphoric acid. The plate was kept at 4° C. for 30 minutes to allow substrate to precipitate. The wells were then washed three times with 0.2 mL of 75 mM phosphoric acid and ^32P incorporation was determined with a beta plate counter (Wallac Inc, Gaithersburg, Md.).

cdk2/cyclinE = cdk2/cyclinE (Homo sapiens, UniProt P24941); assay: Cyclin-Dependent Kinase Assay cdk2/cyclinE
cdk2/cyclinA = cdk2/cyclinA (Homo sapiens, UniProt P24941); assay: Cyclin-Dependent Kinase Assay cdk2/cyclinA
cdk4/D = cdk4/D (Homo sapiens, UniProt P11802); assay: Cyclin-Dependent Kinase 4 (cdk4) Assay; assay type: biochemical
cdc2/cyclinB = cdc2/cyclinB (Homo sapiens, UniProt P06493); assay: Cyclin-Dependent Kinase Assay cdc2/cyclinB
Sequence of cdc2/cyclinB (P06493 whole entry): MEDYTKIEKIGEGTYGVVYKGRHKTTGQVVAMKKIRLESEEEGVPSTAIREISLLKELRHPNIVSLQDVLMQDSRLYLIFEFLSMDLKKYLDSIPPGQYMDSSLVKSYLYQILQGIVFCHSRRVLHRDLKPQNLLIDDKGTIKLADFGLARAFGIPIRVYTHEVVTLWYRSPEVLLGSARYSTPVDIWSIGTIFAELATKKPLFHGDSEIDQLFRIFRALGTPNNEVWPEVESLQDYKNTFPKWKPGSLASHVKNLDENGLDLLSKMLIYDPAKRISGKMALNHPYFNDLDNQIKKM
Sequence of cdc2/cyclinB (P14635 whole entry, further chain): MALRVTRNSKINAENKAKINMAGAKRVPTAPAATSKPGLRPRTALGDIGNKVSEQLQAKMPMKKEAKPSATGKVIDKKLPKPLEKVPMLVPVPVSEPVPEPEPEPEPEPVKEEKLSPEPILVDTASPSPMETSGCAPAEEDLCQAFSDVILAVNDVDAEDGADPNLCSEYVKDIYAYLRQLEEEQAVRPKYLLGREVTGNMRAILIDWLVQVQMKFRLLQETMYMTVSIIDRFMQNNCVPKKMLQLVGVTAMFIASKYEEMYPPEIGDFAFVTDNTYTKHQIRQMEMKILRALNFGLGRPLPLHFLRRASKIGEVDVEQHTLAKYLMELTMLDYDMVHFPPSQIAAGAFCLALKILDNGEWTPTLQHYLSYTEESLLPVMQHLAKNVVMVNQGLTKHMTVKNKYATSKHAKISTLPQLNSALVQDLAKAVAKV

Sequence of cdk4/D (P11802 whole entry): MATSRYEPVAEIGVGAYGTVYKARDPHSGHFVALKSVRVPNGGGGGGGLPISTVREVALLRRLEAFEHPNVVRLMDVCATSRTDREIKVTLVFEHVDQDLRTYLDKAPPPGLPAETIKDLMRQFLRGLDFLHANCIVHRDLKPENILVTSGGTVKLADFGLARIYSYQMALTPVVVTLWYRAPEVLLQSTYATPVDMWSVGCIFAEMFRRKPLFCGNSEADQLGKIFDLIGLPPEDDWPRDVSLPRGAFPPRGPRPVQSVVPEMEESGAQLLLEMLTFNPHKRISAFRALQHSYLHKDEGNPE
Sequence of cdk4/D (P24385 whole entry, further chain): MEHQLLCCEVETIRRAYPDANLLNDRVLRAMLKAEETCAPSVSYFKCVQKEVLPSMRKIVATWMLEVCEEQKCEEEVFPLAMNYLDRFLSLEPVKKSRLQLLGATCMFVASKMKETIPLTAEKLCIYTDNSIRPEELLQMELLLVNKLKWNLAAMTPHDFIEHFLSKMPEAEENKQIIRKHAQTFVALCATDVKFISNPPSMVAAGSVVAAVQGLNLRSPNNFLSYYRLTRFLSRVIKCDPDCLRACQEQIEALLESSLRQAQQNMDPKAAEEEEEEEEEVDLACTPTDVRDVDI

SMILES | IC50 (Cdk5/p25; Table 1) | melting point | IC50 (cdk2/cyclinE; cdk2/E IC50, Table 1) | IC50 (cdk2/cyclinA; cdk2/A IC50, Table 1) | IC50 (cdk4/D; Table 1, read-out: cdk4/D IC50) | IC50 (cdc2/cyclinB) | IC50 (cdk4/D; Table 3, read-out: Cdk4 IC50) | IC50 (Cdk5/p25; Table 3) | IC50 (cdk2/cyclinE; Cdk2/E IC50, Table 3) | IC50 (cdk2/cyclinA; Cdk2/A IC50, Table 3)
O=c1ccc2cnc(Nc3ccc(-c4ccccc4)cc3)nc2n1C1CC2CCC1C2 (stereo not shown) [Example 223, 8-Bicyclo[2.2.1]hept-2-yl-2-(biphenyl-4-ylamino)-8H-pyrido[2,3-d]pyrimidin-7-one] | 0.587 µM | 255 to 257 °C | 1.95 µM | 18 µM | – | – | – | – | – | –
CC(C)n1c(=O)ccc2cnc(Nc3cccc([N+](=O)[O-])c3)nc21 [Example 623, 8-Isopropyl-2-(3-nitro-phenylamino)-8H-pyrido[2,3-d]pyrimidin-7-one] | – | 202 to 203 °C | – | – | – | – | 6.25 µM | 0.021 µM | 0.76 µM | 0.297 µM
CC(C)n1c(=O)ccc2cnc(Nc3ccc(O)cc3)nc21 [Example 624, 8-Isopropyl-2-(4-hydroxy-phenylamino)-8H-pyrido[2,3-]pyrimidin-7-one] | – | > 220 °C | – | – | – | – | 0.255 µM | 0.015 µM | 0.221 µM | 0.061 µM
CC1CC(C)CN(c2ccc(Nc3ncc4ccc(=O)n(C5CCCCC5)c4n3)cc2)C1 (stereo not shown) [Example 167] | 2.68 µM | 238 to 240 °C | – | 0.272 µM | 0.43 µM | 8.91 µM | – | – | – | –
O=c1ccc2cnc(Nc3ccc(N4CCc5ccccc5C4)cc3)nc2n1C1CCCCC1 [Example 171, 8-Cyclohexyl-2-[4-(3,4-dihydro-1H-isoquinolin-2-yl)-phenylamino]-8H-pyrido[2,3-d]pyrimidin-7-one] | 0.419 µM | 185 °C | 0.32 µM | 0.123 µM | – | 1.21 µM | – | – | – | –
COc1ccc(Nc2ncc3ccc(=O)n(C(C)C)c3n2)cc1 [Example 111, 8-Isopropyl-2-(4-methoxy-phenylamino)-8H-pyrido[2,3-d]pyrimidin-7-one] | – | 153 to 155 °C | – | – | – | – | 0.617 µM | 0.0098 µM | 0.58 µM | 0.12 µM
O=c1ccc2cnc(Nc3ccc(N4CCCCC4)cc3)nc2n1[C@@H]1C[C@H]2CC[C@@H]1C2 (relative stereo) [Example 181, 8-Bicyclo[2.2.1]hept-2-yl-2-(4-piperidin-1-yl-phenylamino)-8H-pyrido[2,3-d]pyrimidin-7-one] | 0.591 µM | 243 to 244 °C | – | 0.195 µM | 0.0577 µM | 33.4 µM | – | – | – | –
O=c1ccc2cnc(Nc3ccc(N4CCCC(CCCO)C4)cc3)nc2n1C1CC2CCC1C2 (stereo not shown) [Example 236, 8-Bicyclo[2.2.1]hept-2-yl-2-{4-[3-(3-hydroxy-propy)-piperidin-1-yl]-phenylamino}-8H-pyrido[2,3-d]pyrimidin-7-one] | 0.395 µM | 150 to 151 °C | – | 0.0136 µM | 0.0069 µM | 0.674 µM | – | – | – | –
CC1CCCN(c2ccc(Nc3ncc4ccc(=O)n(C5CCCCC5)c4n3)cc2)C1 (stereo not shown) [Example 175, 8-Cyclohexyl-2-[4-(3-methyl-piperidin-1-yl)-phenylamino]-8H-pyrido[2,3-d]pyrimidin-7-one] | 0.69 µM | 189 to 190 °C | 0.433 µM | 0.711 µM | 0.27 µM | – | – | – | – | –
CN1CCN(c2ccc(Nc3ncc4ccc(=O)n(CCOCc5ccccc5)c4n3)cc2)CC1 [Example 140] | 5.17 µM | 183 to 191 °C | 23.6 µM | 13.4 µM | – | – | – | – | – | –
Cn1c(=O)ccc2cnc(Nc3ccccc3)nc21 [Example 61, 8-Methyl-2-phenylamino-8H-pyrido[2,3-d]pyrimidin-7-one] | – | 244 to 247 °C | – | – | – | – | 5.48 µM | 0.089 µM | 1.68 µM | 1.15 µM
O=c1ccc2cnc(Nc3ccc(N4CCC(CCCO)CC4)cc3)nc2n1C1CC2CCC1C2 (stereo not shown) [Example 214, 8-Bicyclo[2.2.1]hept-2-yl-2-{4-[4-(3-hydroxy-propyl)-piperidin-1-yl]-phenylamino}-8H-pyrido[2,3-d]pyrimidin-7-one] | 3.32 µM | 223 °C | 0.126 µM | 0.205 µM | 0.008 µM | – | – | – | – | –
O=c1ccc2cnc(Nc3ccc(N4CCC(CCCN5CCOCC5)CC4)cc3)nc2n1C1CC2CCC1C2 (stereo not shown) [Example 235, 8-Bicyclo[2.2.1]hept-2-yl-2-{4-[4-(3-morpholin-4-yl-propyl)-piperidin-1-yl]-phenylamino}-8H-pyrido[2,3-d]pyrimidin-7-one] | 1.46 µM | 197 to 198 °C | – | 0.096 µM | 0.037 µM | 1.7 µM | – | – | – | –

The remaining lines, values ahead:

IC50 (Cdk5/p25; Table 1) | melting point | IC50 (cdk2/cyclinE; cdk2/E IC50, Table 1) | IC50 (cdk2/cyclinA; cdk2/A IC50, Table 1) | IC50 (cdk4/D; Table 1, read-out: cdk4/D IC50) | IC50 (cdc2/cyclinB) | IC50 (cdk4/D; Table 3, read-out: Cdk4 IC50) | IC50 (Cdk5/p25; Table 3) | IC50 (cdk2/cyclinE; Cdk2/E IC50, Table 3) | IC50 (cdk2/cyclinA; Cdk2/A IC50, Table 3) | SMILES
0.127 µM | 208 to 209 °C | 2.32 µM | – | 0.0335 µM | 7.39 µM | – | – | – | – | O=c1ccc2cnc(Nc3ccc(N4CCC(CCCO)CC4)cc3)nc2n1C1CCCC1 [Example 197, 8-Cyclopentyl-2-{4-[4-(3-hydroxy-propyl)-piperidin-1-yl]-phenylamino]-8H-pyrido[2,3-d]pyrimidin-7-one]
0.0425 µM | 241 to 242 °C | 0.087 µM | 0.0357 µM | 0.089 µM | 0.267 µM | – | – | – | – | O=c1ccc2cnc(Nc3ccc(-n4cccn4)cc3)nc2n1C1CCCCC1 [Example 162, 8-Cyclohexyl-2-(4-pyrazol-1-yl-phenylamino)-8H-pyrido[2,3-d]pyrimidin-7-one]
0.019 µM | 105 to 107 °C | 0.109 µM | 0.0425 µM | 0.0066 µM | – | – | – | – | – | CCN(CC)CCOc1ccc(Nc2ncc3ccc(=O)n(C4CCCC4)c3n2)cc1 [Example 117, 8-Cyclopentyl-2-[4-(2-diethylamino-ethoxy)-phenylamino]-8H-pyrido[2,3-d]pyrimidin-7-one]
0.336 µM | 254 to 255 °C | 7.6 µM | 0.58 µM | 0.153 µM | – | – | – | – | – | O=c1ccc2cnc(Nc3ccc(N4CCCCC4)cc3)nc2n1C1CCOCC1 [Example 211, 2-(4-Piperidin-1-yl-phenylamino)-8-(tetrahydro-pyran-4-yl)-8H-pyrido[2,3-d]pyrimidin-7-one]
0.113 µM | 199 to 200 °C | – | 0.061 µM | 0.175 µM | 0.25 µM | – | – | – | – | O=c1ccc2cnc(Nc3ccc(N4CCCC4)cc3)nc2n1C1CCCCC1 [Example 160, 8-Cyclohexyl-2-(4-pyrrolidin-1-yl-phenylamino)-8H1-pyrido[2,3-d]pyrimidin-7-one]
0.3 µM | 160 to 161 °C | 0.149 µM | 0.11 µM | 0.0115 µM | 0.67 µM | – | – | – | – | O=c1ccc2cnc(Nc3ccc(N4CCCCC4CO)cc3)nc2n1C1CC2CCC1C2 (stereo not shown) [Example 253]
0.237 µM | 165 to 167 °C | 1.3 µM | 0.206 µM | 0.2 µM | – | – | – | – | – | CCN(CC)CCOc1ccc(Nc2ncc3ccc(=O)n(-c4ccccc4)c3n2)cc1 [Example 118, 2-[4-(2-Diethylamino-ethoxy)-phenylamino]-8-phenyl-8H-pyrido[2,3-d]pyrimidin-7-one]
0.0532 µM | 133 to 134 °C | 0.075 µM | 0.0815 µM | – | 0.2 µM | – | – | – | – | CCN(CC)CCOc1ccc(Nc2ncc3ccc(=O)n(C4CC5CCC4C5)c3n2)cc1 (stereo not shown) [Example 224, 8-Bicyclo[2.2.1]hept-2-yl-2-[4-(2-diethylamino-ethoxy)-phenylamino]-8H-pyrido[2,3-d]pyrimidin-7-one]
0.0237 µM | 233 to 234 °C | 0.102 µM | 0.0425 µM | 0.0061 µM | 0.16 µM | – | – | – | – | CN1CCN(c2ccc(Nc3ncc4ccc(=O)n(C5CC6CCC5C6)c4n3)cc2)CC1 (stereo not shown) [Example 252]
0.019 µM | 216 to 217 °C | 0.044 µM | – | 0.015 µM | 0.118 µM | – | – | – | – | O=c1ccc2cnc(Nc3ccc(N4CCC(O)CC4)cc3)nc2n1C1CCCC1 [Example 198, 8-Cyclopentyl-2-[4-(4-hydroxy-piperidin-1-yl)-phenylamino]-8H-pyrido[2,3-d]pyrimidin-7-one]
0.0312 µM | 189 to 190 °C | 0.12 µM | – | 0.136 µM | – | – | – | – | – | O=c1ccc2cnc(Nc3ccc(-n4cccc4)cc3)nc2n1C1CCCC1 [Example 190, 8-Cyclopentyl-2-(4-pyrrol-1-yl-phenylamino)-8H-pyrido[2,3-d]pyrimidin-7-one]
0.053 µM | 215 to 217 °C | – | – | – | – | 1.24 µM | 0.032 µM | 0.56 µM | 0.421 µM | CCn1c(=O)ccc2cnc(Nc3ccc(F)cc3)nc21 [Example 88, 8-Ethyl-2-(4-fluorophenylamino)-8H-pyrido[2,3-d]pyrimidin-7-one]
0.124 µM | 199 to 200 °C | 0.047 µM | – | 0.017 µM | – | – | – | – | – | O=c1ccc2cnc(Nc3ccc(N4CCC(CCO)CC4)cc3)nc2n1C1CCCC1 [Example 196]
